{"source": "paper PMC8468039", "about": "“Development of New Meridianin/Leucettine-Derived Hybrid Small Molecules as Nanomolar Multi-Kinase Inhibitors with Antitumor Activity” (Biomedicines, 2021)", "experiment_in_all_cases": "In vitro kinase inhibition assay (HotSpot, Reaction Biology)", "assay_type_in_all_cases": "biochemical", "key": {"EGFR": {"molecular_target": "T1, EGFR (Homo sapiens, UniProt P00533)", "T1 construct": "purchased Reaction Biology Corp", "T1 sequence (P00533 25-1210)": "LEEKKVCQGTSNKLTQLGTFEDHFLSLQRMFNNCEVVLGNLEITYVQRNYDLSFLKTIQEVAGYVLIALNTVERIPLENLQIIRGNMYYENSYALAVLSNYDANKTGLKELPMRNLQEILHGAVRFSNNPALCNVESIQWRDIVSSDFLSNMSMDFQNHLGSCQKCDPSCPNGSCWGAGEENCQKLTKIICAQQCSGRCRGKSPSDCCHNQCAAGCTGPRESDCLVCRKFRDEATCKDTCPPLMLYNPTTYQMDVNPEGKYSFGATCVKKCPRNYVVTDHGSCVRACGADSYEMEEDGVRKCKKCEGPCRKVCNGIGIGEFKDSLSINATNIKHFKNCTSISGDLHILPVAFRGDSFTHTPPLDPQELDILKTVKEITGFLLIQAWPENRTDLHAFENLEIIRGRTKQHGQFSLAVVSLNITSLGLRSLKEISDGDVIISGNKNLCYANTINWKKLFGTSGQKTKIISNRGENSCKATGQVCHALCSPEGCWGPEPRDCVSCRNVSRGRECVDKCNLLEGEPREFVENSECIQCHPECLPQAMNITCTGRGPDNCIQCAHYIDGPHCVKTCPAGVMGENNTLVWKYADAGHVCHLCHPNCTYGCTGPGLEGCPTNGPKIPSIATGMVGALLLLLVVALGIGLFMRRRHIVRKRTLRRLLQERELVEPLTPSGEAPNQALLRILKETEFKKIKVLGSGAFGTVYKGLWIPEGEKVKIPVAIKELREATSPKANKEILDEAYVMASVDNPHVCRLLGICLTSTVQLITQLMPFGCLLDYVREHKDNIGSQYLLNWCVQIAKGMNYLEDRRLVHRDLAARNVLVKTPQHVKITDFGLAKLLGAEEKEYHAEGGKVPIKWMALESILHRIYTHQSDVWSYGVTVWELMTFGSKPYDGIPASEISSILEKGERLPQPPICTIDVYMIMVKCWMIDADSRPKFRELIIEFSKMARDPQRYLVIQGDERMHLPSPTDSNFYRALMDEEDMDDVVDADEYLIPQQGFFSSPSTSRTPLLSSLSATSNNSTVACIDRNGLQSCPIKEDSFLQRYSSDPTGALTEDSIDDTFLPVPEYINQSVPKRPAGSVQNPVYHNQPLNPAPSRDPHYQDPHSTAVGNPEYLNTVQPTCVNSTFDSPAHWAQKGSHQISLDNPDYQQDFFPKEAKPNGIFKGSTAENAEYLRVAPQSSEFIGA", "settings": "single dose of 10 µM; 10 µM ATP as printed; read-out: Percent Inhibition, EGFR"}, "JAK3": {"molecular_target": "T2, JAK3 (Homo sapiens, UniProt P52333)", "T2 construct": "purchased Reaction Biology Corp", "T2 sequence (P52333 whole entry)": "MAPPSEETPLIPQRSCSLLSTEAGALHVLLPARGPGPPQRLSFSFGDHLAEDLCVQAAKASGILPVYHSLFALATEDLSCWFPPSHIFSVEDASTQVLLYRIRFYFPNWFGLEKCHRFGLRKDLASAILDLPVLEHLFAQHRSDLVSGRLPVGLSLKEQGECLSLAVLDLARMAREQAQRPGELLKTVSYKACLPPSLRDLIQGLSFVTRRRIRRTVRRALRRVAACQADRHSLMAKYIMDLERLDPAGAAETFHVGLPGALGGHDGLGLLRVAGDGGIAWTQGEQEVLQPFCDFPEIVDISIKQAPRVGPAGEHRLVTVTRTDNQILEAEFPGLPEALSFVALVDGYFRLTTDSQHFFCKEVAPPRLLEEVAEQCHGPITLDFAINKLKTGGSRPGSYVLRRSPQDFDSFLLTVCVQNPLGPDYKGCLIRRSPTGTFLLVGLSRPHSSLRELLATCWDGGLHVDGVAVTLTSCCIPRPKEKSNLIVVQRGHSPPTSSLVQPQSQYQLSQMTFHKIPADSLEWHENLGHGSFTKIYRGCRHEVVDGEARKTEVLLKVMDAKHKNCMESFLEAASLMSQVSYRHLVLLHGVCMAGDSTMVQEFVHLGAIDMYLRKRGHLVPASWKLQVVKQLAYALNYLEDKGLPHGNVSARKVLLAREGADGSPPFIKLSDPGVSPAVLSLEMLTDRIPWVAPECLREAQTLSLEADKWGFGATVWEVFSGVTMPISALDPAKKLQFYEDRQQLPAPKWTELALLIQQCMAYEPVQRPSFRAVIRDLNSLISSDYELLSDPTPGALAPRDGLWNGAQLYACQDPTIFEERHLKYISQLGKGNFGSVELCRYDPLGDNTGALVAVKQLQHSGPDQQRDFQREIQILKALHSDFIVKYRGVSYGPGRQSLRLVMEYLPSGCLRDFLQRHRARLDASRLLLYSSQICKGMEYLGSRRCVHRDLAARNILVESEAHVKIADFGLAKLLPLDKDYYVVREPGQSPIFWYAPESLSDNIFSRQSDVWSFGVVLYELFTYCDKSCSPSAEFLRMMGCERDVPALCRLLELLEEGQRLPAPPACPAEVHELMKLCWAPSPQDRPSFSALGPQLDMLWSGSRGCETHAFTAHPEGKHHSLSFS", "settings": "single dose of 10 µM; read-out: Percent Inhibition, JAK3"}, "KDR/VEGFR2": {"molecular_target": "T3, KDR/VEGFR2 (Homo sapiens, UniProt P35968)", "T3 construct": "purchased Reaction Biology Corp", "settings": "single dose of 10 µM; 10 µM ATP as printed; read-out: Percent Inhibition, KDR/VEGFR2"}, "PAK1": {"molecular_target": "T4, PAK1 (Homo sapiens, UniProt Q13153)", "T4 construct": "purchased Reaction Biology Corp", "T4 sequence (Q13153 whole entry)": "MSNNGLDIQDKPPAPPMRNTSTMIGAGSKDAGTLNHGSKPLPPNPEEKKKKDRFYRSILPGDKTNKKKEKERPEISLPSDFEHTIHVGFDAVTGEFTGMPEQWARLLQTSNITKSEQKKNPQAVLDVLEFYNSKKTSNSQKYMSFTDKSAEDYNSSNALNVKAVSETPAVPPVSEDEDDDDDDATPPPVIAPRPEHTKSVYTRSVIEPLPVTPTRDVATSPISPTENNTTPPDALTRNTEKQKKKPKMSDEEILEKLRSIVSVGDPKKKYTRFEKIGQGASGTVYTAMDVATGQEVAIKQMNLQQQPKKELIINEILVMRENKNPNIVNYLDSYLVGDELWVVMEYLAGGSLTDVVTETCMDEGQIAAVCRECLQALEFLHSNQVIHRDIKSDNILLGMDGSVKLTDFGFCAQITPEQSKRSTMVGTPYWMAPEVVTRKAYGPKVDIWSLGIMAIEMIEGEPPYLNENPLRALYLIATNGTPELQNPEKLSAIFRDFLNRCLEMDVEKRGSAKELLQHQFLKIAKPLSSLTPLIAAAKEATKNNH", "settings": "single dose of 10 µM; read-out: Percent Inhibition, PAK1"}, "c-MET": {"molecular_target": "T5, c-MET (Homo sapiens, UniProt P08581)", "T5 construct": "purchased Reaction Biology Corp", "T5 sequence (P08581 25-1390)": "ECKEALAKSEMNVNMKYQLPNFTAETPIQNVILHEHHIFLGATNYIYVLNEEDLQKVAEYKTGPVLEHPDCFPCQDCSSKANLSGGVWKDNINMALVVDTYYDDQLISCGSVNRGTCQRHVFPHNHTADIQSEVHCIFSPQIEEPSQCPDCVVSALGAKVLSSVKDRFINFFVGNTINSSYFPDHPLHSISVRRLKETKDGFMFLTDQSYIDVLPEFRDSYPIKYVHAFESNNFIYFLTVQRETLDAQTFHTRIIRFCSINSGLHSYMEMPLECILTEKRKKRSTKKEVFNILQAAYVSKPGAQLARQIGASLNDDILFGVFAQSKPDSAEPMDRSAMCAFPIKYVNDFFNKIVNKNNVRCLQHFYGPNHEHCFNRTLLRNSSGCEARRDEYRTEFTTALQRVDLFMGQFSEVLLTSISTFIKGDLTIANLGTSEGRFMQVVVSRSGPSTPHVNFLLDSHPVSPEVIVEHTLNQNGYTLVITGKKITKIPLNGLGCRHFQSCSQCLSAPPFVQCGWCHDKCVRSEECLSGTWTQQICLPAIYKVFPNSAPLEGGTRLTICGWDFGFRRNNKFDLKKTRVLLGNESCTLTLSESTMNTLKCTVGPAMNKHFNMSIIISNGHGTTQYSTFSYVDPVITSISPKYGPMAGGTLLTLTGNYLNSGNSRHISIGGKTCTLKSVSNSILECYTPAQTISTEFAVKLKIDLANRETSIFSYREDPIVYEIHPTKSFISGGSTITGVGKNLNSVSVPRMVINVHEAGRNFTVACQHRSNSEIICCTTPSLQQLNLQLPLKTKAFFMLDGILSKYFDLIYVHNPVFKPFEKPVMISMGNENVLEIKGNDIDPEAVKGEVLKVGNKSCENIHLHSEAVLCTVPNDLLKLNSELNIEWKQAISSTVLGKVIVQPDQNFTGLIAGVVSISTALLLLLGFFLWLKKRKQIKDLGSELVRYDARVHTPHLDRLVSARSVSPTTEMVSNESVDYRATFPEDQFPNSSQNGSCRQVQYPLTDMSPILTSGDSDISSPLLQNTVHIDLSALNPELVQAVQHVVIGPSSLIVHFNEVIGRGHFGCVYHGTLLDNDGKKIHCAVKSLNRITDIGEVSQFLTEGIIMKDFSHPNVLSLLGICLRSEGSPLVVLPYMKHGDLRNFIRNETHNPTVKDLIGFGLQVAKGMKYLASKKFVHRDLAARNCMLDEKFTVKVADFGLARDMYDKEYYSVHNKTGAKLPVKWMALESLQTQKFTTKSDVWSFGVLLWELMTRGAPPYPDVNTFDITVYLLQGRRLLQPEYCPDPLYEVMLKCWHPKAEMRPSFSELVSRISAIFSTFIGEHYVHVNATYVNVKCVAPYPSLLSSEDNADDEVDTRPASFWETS", "settings": "single dose of 10 µM; 10 µM ATP as printed; read-out: Percent Inhibition, c-MET"}}}
{"smiles": "COc1ccc(Oc2nc(Nc3ccc(N4CCOCC4)cc3)ncc2NC(=O)c2ccc3c(c2)OCO3)cc1", "note": "[5a, N-(4-(4-Methoxyphenoxy)-2-((4-morpholinophenyl)amino)pyrimidin-5-yl)benzo[d][1,3]dioxole-5-carboxamide]", "values": [{"measurement": "inhibition at 10 µM", "setting": "EGFR", "value": "27 ± 0.9", "unit": "%"}, {"measurement": "inhibition at 10 µM", "setting": "JAK3", "value": "11.2 ± 1.2", "unit": "%"}, {"measurement": "inhibition at 10 µM", "setting": "KDR/VEGFR2", "value": "7.9 ± 1.4", "unit": "%"}, {"measurement": "inhibition at 10 µM", "setting": "PAK1", "value": "-29.1 ± 3.4", "unit": "%"}, {"measurement": "inhibition at 10 µM", "setting": "c-MET", "value": "12 ± 13.7", "unit": "%"}]}
